Results on one compound are retold here after US20200108031A1, “Treating Tumors Using TTFields Combined with ABT-751” (Novocure GmbH, priority 2018, published 2020).

For experiment [1], the system named is A172 cells. Description: Colony formation (clonogenic survival) of A172 cells, TTFields alone and in combination with ABT-751. In kind it is cell-based. Particulars: ABT-751 1 μM, 8 hours, TTFields 200 kHz, 3.3 V/cm, 72 hours (continuous or 3×16 hours), FIG. 2. The procedure:
(§1) For the first two bars, both without (−) and with (+) ABT-751, TTFields were not applied. For the next two bars, both without (−) and with (+) ABT-751, TTFields were applied for three 16 hour intervals, and each of those 16 hour intervals was followed by an 8 hour interval during which TTFields were not applied. For the next two bars, both without (−) and with (+) ABT-751, TTFields were applied continuously for 72 hours. […] Data are mean±SEM; n≥5; Statistical significance was determined by one-way ANOVA; Tukey-corrected for multiple comparisons; *p<0.05, **p<0.01, ***p<0.001, ****p<0.0001. In all the experiments described herein, TTFields (200 kHz; 3.3V/cm) were applied using an Inovitro™ system.

The test system of experiment [2] is A172 cells. Description: Growth of A172 cells, TTFields alone and in combination with ABT-751. The experiment is classed as cell-based. The settings on record: ABT-751 1 μM, 8 hours, TTFields 200 kHz, 3.3 V/cm, 72 hours (continuous or 3×16 hours), FIG. 1. The procedure:
as §1

Regarding `COc1ccc(S(=O)(=O)Nc2cccnc2Nc2ccc(O)cc2)cc1` [ABT-751, N-[2-(4-hydroxyanilino)pyridin-3-yl]-4-methoxybenzenesulfonamide], the “synergy with TTFields on colony formation” value in experiment [1] is given as “synergizes”. Further, the “synergy with TTFields on cell growth” value in experiment [2] is listed as “synergizes”.
